Reference: US6884772B1, “Depilatories and agents for external use” (Kao Corporation, priority 1999, dated 2005)
Where no end group is shown, it is not given here.

How the values were obtained:
[1] = test system: dorsal parts of guinea pigs; assay: Growth-phase hair follicle inhibitory effects (number of hair shafts grown per unit area); format: in vivo, guinea pig; conditions: 1 μg each, intracutaneous, 50 μL/site, fifth day after the administration (FIG. 1)
Method: Solutions (1 μg, each) of endothelin-1, endothelin-2 and endotherin-3 in aliquots of phosphate buffer solution (PBS), which contained 0.1% of bovine serum albumin (BSA), were intracutaneously administered (at 50 μL/site) to the dorsal parts of guinea pigs, respectively, from which hair had been cut off by a hair clipper. Three days after the administration, hair was again cut off by a hair clipper from the administered sites. Two days after the cutting, the numbers of hair shafts grown per unit area at the administered sites were counted.

[2] = test system: hair follicle organs in growth phase from a human scalp tissue; assay: Growth inhibitory effects on organ-cultured hair follicles; format: cell-based
Method: From a human scalp tissue, hair follicle organs in growth phase were surgically isolated under a stereomicroscope. Following a conventional procedure [Philpott M.P., et al., J. Cell Sci., 97, 463-471 (1990), the isolated hair follicles were subjected to organ culture. Described specifically, endothelin-1 was added to William's E medium which contained L-glutamine (2mM), hydrocortisone (10ng/mL), insulin ([…]) sodium selenite (10 ng/mL) and transferrin (10 μg/mL).

[3] = test system: dorsal part of a guinea pig; assay: Depilation inducing effects of endothelin (intracutaneous administration); format: in vivo; conditions: 0.3 μg in 0.1% BSA/PBS, 50 μL/site, 10 days after the administration
Method: A solution of endothelin-1 (0.3 μg) in phosphate buffer solution (PBS), which contained 0.1% of bovine serum albumin (BSA), was intracutaneously administered (at 50 μL/site) to the dorsal part of a guinea pig.

[4] = test system: growth-phase hair follicle; assay: Structural changes of hair follicle structure (hematoxylin-eosin staining of dorsal skin); format: in vivo, guinea pig; conditions: 0.3 μg intracutaneous
Method: A solution of endothelin-1 (0.3 μg) in phosphate buffer solution (PBS), which contained 1.1% of bovine serum albumin (BSA), was intracutaneously administered (at 50 μL/site) to the dorsal part of a guinea pig. After that, samples were collected day after day from the administered dorsal skin, and tissue samples were prepared by hematoxylin-eosin staining.

Molecule | Number of hair shafts grown per unit area at the administered sites [1] | Percent regression of growth-phase hair follicles ([2]; 10 ng/mL, Day 1 of incubation) [%] | Percent regression of growth-phase hair follicles ([2]; 10 ng/mL, Day 2 of incubation) [%] | Percent regression of growth-phase hair follicles ([2]; 100 ng/mL, Day 1 of incubation) [%] | Percent regression of growth-phase hair follicles ([2]; 100 ng/mL, Day 2 of incubation) [%] | Grown hair follicle lengths (hair growth inhibition) ([2]; day 4 of incubation and the subsequent days, compared with control group without endothelin-1 (FIG. 3)) | Structural change of incubated growth-phase hair follicles ([2]; during the incubation period (FIG. 4)) | Hair shaft falling-off and formation of depilation spot at the administered site [3] | Hair follicle histology ([4]; 1st day after the administration (FIG. 2)) | Hair follicle histology ([4]; 3rd day after the administration (FIG. 2))
endothelin-2 (CSCSSWLDKECVYFCHLDIIW; ends and bridges not checked; cysteine pairing not given here; UniProt P20800 49-69, looked up) [peptide composed of 21 amino acid residues, isoform of endothelin] | significant (p<0.01) decrease in the number of hair shafts | – | – | – | – | – | – | – | – | –
CC[C@H](C)[C@H](NC(=O)[C@H](CC(=O)O)NC(=O)[C@H](CC(C)C)NC(=O)[C@H](Cc1c[nH]cn1)NC(=O)[C@@H]1CSSC[C@H](N)C(=O)N[C@@H](CO)C(=O)N[C@H]2CSSC[C@H](NC(=O)[C@H](CCC(=O)O)NC(=O)[C@H](CCCCN)NC(=O)[C@H](CC(=O)O)NC(=O)[C@H](CCSC)NC(=O)[C@H](CC(C)C)NC(=O)[C@H](CO)NC(=O)[C@H](CO)NC2=O)C(=O)N[C@@H](C(C)C)C(=O)N[C@@H](Cc2ccc(O)cc2)C(=O)N[C@@H](Cc2ccccc2)C(=O)N1)C(=O)N[C@H](C(=O)N[C@@H](Cc1c[nH]c2ccccc12)C(=O)O)[C@@H](C)CC [Endothelin-1, endothelin-1] | significant (p<0.01) decrease in the number of hair shafts | 0.0 | 0.0 | 0.0 | 0.0 | significant hair growth inhibitory effects were observed | structural change of the endothelin-treated, growth-phase hair follicles into those similar to resting-phase hair follicles was observed | hair shaft falling-off and formation of a marked depilation spot were observed | regressed image of a growth-phase hair follicle was observed | image of a follicular tissue in transition phase was presented
endothelin-3 (CTCFTYKDKECVYYCHLDIIW; ends and bridges not checked; cysteine pairing not given here; UniProt P14138 97-117, looked up) [endotherin-3, peptide composed of 21 amino acid residues, isoform of endothelin] | significant (p<0.01) decrease in the number of hair shafts | – | – | – | – | – | – | – | – | –
